As usually defined, the Emax is the size of the effect at its maximum, as opposed to the concentration needed. As usually defined, the EC50 is the concentration needed to bring the measured effect to its halfway point.

The assay deals with T1, ΔF508-CFTR (Homo sapiens, UniProt P13569, DEL508-508).
T1 construct: expressed in transfected cells
The assay can be described thus: Membrane potential optical assay for potentiators of ΔF508-CFTR (double-addition HTS, FLIPR III). Format: cell-based. The settings on record: for Emax: 100% efficacy is the maximum response obtained with 4-methyl-2-(5-phenyl-1H-pyrazol-3-yl)phenol; for EC50: temperature-corrected ΔF508 CFTR NIH 3T3 cells, potentiation with forskolin activation. An excerpt: Membrane Potential Optical Methods for Assaying ΔF508-CFTR Modulation Properties of Compounds
The assay utilizes fluorescent voltage sensing dyes to measure changes in membrane potential using a fluorescent plate reader (e.g., FLIPR III, Molecular Devices, Inc.) as a readout for increase in functional ΔF508-CFTR in NIH 3T3 cells. The driving force for the response is the creation of a chloride ion gradient in conjunction with channel activation by a single liquid addition step after the cells have previously been treated with compounds and subsequently loaded with a voltage sensing dye.
To identify potentiators of ΔF508-CFTR, a double-addition HTS assay format was developed. This HTS assay utilizes fluorescent voltage sensing dyes to measure changes in membrane potential on the FLIPR III as a measurement for increase in gating (conductance) of ΔF508 CFTR in temperature-corrected ΔF508 CFTR NIH 3T3 cells. The driving force for the response is a Cl^− ion gradient in conjunction with channel activation with forskolin in a single liquid addition step using a fluoresecent plate reader such as FLIPR III after the cells have previously been treated with potentiator compounds (or DMSO vehicle control) and subsequently loaded with a redistribution dye.
Bath Solution #1: (in mM) NaCl 160, KCl 4.5, CaCl2 2, MgCl2 1, HEPES 10, pH 7.4 with NaOH.
Chloride-Free Bath Solution: Chloride Salts in Bath Solution #1 are Substituted with Gluconate Salts.
NIH3T3 mouse fibroblasts stably expressing ΔF508-CFTR are used for optical measurements of membrane potential. The cells are maintained at 37° C. in 5% CO2 and 90% humidity in Dulbecco's modified Eagle's medium supplemented with 2 mM glutamine, 10% fetal bovine serum, 1×NEAA, β-ME, 1× pen/strep, and 25 mM HEPES in 175 cm^2 culture flasks. For all optical assays, the cells were seeded at ˜20,000/well in 384-well matrigel-coated plates and cultured for 2 hrs at 37° C. before culturing at 27° C. for 24 hrs. for the potentiator assay. For the correction assays, the cells are cultured at 27° C. or 37° C. with and without compounds for 16-24 hours. Electrophysiological Assays for assaying ΔF508-CFTR modulation properties of compounds.

T1 sequence (P13569 with tags, fused parts or gaps DEL508-508): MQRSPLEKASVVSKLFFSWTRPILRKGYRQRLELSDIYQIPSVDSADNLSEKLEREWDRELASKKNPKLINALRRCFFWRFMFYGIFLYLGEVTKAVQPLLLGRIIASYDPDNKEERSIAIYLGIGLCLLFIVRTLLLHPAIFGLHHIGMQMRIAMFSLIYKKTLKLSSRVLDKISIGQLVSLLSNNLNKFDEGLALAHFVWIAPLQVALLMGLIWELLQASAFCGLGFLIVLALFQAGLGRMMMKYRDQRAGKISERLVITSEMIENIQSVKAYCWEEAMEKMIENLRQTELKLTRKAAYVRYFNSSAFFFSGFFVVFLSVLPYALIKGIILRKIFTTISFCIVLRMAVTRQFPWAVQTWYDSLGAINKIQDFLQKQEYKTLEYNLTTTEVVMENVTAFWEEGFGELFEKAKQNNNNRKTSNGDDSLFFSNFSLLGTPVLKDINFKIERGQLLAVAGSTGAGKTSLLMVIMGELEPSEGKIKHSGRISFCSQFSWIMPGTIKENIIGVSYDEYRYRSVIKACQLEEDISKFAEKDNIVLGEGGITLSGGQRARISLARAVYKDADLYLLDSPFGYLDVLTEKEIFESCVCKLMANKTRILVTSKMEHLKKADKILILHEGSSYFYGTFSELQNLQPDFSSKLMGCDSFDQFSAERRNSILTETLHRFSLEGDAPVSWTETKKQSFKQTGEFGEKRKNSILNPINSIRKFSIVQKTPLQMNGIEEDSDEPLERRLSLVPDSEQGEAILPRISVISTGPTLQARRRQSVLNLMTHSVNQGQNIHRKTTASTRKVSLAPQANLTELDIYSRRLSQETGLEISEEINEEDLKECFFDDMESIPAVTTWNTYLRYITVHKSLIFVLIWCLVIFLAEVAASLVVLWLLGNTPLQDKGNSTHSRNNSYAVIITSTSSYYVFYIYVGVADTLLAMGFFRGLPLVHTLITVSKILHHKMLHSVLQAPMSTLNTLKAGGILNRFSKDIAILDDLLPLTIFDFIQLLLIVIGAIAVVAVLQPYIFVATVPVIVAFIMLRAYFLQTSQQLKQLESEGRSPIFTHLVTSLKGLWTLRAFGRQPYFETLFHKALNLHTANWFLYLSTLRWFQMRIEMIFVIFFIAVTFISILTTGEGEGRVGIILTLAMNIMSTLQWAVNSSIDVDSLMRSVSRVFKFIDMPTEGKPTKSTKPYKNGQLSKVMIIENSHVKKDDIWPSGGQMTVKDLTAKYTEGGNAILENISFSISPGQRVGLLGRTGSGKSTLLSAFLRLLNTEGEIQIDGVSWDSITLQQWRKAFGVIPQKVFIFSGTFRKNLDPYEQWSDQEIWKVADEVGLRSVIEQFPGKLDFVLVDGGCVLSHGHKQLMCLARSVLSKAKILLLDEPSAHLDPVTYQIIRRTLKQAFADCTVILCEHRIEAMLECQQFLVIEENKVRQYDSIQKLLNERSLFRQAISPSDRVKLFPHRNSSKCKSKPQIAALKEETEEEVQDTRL

Take `Cc1cc2[nH]cc(C(=O)Nc3cc(O)c(C(C)(C)C)cc3C(C)(C)C)c(=O)n2n1` [Compound 1]: the maximal response (Emax) was in the range of 25 to 100% and the EC50 is less than 5 µM.

Consider `CC(C)(C)c1c[nH]c2cc(NC(=O)c3c[nH]c4ccnn4c3=O)ccc12` [Compound 2], for which the Emax is more than 100% and the concentration for a half-maximal effect (EC50) is less than 5 µM.

On to `Cc1cc2[nH]cc(C(=O)Nc3ccc(N4CCC(C)(C)C4)cc3C(F)(F)F)c(=O)n2c1` [Compound 3], for which the maximal response (Emax) lay in the range of 25 to 100% and the EC50 is less than 5 µM.

Regarding `Cc1cc2[nH]cc(C(=O)Nc3cc4[nH]ccc4cc3C(C)(C)C)c(=O)n2n1` [Compound 4], the Emax fell in the range of 25 to 100% and the half-maximal effective concentration (EC50) is less than 5 µM.

In the case of `CC(C)(C)c1cc(C(C)(C)C)c(NC(=O)c2c[nH]c3ccnn3c2=O)cc1O` [Compound 5, N-(2,4-di-tert-butyl-5-hydroxyphenyl)-7-oxo-4,7-dihydropyrazolo[1,5-a]pyrimidine-6-carboxamide], the Emax lay in the range of 25 to 100% and the EC50 is less than 5 µM.

For the compound `CC(C)(C)c1cc2cc[nH]c2cc1NC(=O)c1c[nH]c2ccnn2c1=O` [Compound 6], the maximum response (Emax) is 25 to 100% and the EC50 was less than 5 µM.

For the compound `CCc1cc2[nH]cc(C(=O)Nc3ccc4c(C(F)(F)F)c[nH]c4c3)c(=O)n2c1` [Compound 7], the maximal effect (Emax) fell in the range of 25 to 100% and the EC50 was less than 5 µM.

Turning to `O=C(Nc1cc2[nH]ccc2cc1C(F)(F)F)c1c[nH]c2ccnn2c1=O` [Compound 8], the Emax fell in the range of 25 to 100% and the concentration giving a half-maximal response (EC50) lay within 5 to 20 µM.

As to `CCc1cc2[nH]cc(C(=O)Nc3ccc4c(C(C)(C)C)c[nH]c4c3)c(=O)n2c1` [Compound 9], the maximum response (Emax) is 25 to 100% and the EC50 was less than 5 µM.

As for `Cc1cc2[nH]cc(C(=O)Nc3ccc4cc[nH]c4c3)c(=O)n2n1` [Compound 10], the Emax fell in the range of 25 to 100% and the half-maximal effective concentration (EC50) is more than 20 µM.

Take `CCc1cc2[nH]cc(C(=O)Nc3cc4[nH]ccc4cc3C(F)(F)F)c(=O)n2c1` [Compound 11]: the maximal response (Emax) is 25 to 100% and the EC50 is less than 5 µM.

Consider `CCc1cc2[nH]cc(C(=O)Nc3cc(O)c(C4(C)CCCCC4)cc3F)c(=O)n2c1` [Compound 12], for which the Emax lay in the range of 25 to 100% and the EC50 fell in the range of 5 to 20 µM.

As to `O=C(Nc1ccc(N2CCCC2)cc1C(F)(F)F)c1c[nH]c2ccnn2c1=O` [Compound 13], the Emax was 25 to 100% and the 50% effective concentration (EC50) fell in the range of 5 to 20 µM.

For `CCc1cc2[nH]cc(C(=O)Nc3cc(O)c(C(C)(C)C)cc3C(C)(C)C)c(=O)n2c1` [Compound 14, N-(2,4-di-tert-butyl-5-hydroxyphenyl)-7-ethyl-4-oxo-1,4-dihydropyrrolo[1,2-a]pyrimidine-3-carboxamide], the Emax fell in the range of 25 to 100% and the EC50 is less than 5 µM.

`Cc1cc2[nH]cc(C(=O)Nc3cc(O)c(C4(C)CCCCC4)cc3F)c(=O)n2c1` [Compound 15]: the Emax lay in the range of 25 to 100% and the EC50 is less than 5 µM.

Consider `Cc1cc2[nH]cc(C(=O)Nc3cc(O)c(C4CCCC4)cc3C(F)(F)F)c(=O)n2c1` [Compound 16], for which the Emax is 25 to 100% and the EC50 was less than 5 µM.

`Cc1cc2[nH]cc(C(=O)Nc3ccc4c(C(F)(F)F)c[nH]c4c3)c(=O)n2c1` [Compound 17]: the Emax is 25 to 100% and the concentration for a half-maximal effect (EC50) was less than 5 µM.

As for `Cc1cc2[nH]cc(C(=O)Nc3cc(O)c(C4CCCC4)cc3C)c(=O)n2c1` [Compound 18], the maximal response (Emax) lay in the range of 25 to 100% and the EC50 was less than 5 µM.

Regarding `Cc1cc2[nH]cc(C(=O)Nc3cc(O)c(C4CCCC4)cc3C#N)c(=O)n2c1` [Compound 19], the Emax was 25 to 100% and the 50% effective concentration (EC50) is less than 5 µM.

Values taken from US8552006B2, “Modulators of cystic fibrosis transmembrane conductance regulator” (Vertex Pharmaceuticals Incorporated, priority 2007, dated 2013).
